Experimental data: ChEMBL document CHEMBL3885861, “Open TG-GATES”

Organism: Rattus norvegicus
Assay: Open TG-GATES - Regimen: Single
Assay type: toxicity, organism-based, Sprague-Dawley
Parameters: regimen Single, gender Male, age 6 weeks
Details: in vivo, po, route gavage; for APTT / Bas / Eos / Fbg / Hb / Ht / Lym / MCH / MCHC / MCV / Mono / Neu / PT / Plat / RBC / Ret / WBC: tissue Blood; for KIDNEY_L / KIDNEY_R / KIDNEY_TOTAL: tissue Kidney; for LIVER: tissue Liver; for A/G / ALP / ALT / AST / BUN / CRE / Ca / Cl / DBIL / GLC / IP / K / LDH / Na / PL / RALB / TBIL / TC / TG / TP / gamma-GTP: tissue Plasma
[1] = 0 mg/kg, 3 h, dose level Control
[2] = 0 mg/kg, 6 h, dose level Control
[3] = 0 mg/kg, 9 h, dose level Control
[4] = 0 mg/kg, 24 h, dose level Control

## OCCOCCN1CCN(C(c2ccccc2)c2ccc(Cl)cc2)CC1 (centres undefined) [HYDROXYZINE]
[1]
  TERMINAL_BW: 191.8 g
  APTT: 16.4 s
  Bas: 0%
  Eos: 0.8%
  Fbg: 287 mg/dL
  Hb: 13.2 g/dL
  Ht: 41%
  Lym: 78%
  MCH: 21.5 pg
  MCHC: 32.3%
  MCV: 66.6 fL
  Mono: 3%
  Neu: 17.4%
  PT: 15.4 s
  Plat: 120.7 x10_4/uL
  RBC: 616 x10_4/ul
  Ret: 8.7%
  WBC: 71.8 x10_2/uL
  KIDNEY_L: 0.9 g
  KIDNEY_R: 0.9 g
  KIDNEY_TOTAL: 1.7 g
  LIVER: 8.6 g
  A/G: 0.8
  ALP: 1501.4 IU/L
  ALT: 41 IU/L
  AST: 73 IU/L
  BUN: 9 mg/dL
  CRE: 0.2 mg/dL
  Ca: 10.9 mg/dL
  Cl: 106 meq/L
  DBIL: 0.012 mg/dL
  GLC: 176.8 mg/dL
  IP: 9.2 mg/dL
  K: 4.2 meq/L
  LDH: 61.8 IU/L
  Na: 141.8 meq/L
  PL: 138.6 mg/dL
  RALB: 2.5 g/dL
  TBIL: 0.056 mg/dL
  TC: 75.4 mg/dL
  TG: 68.8 mg/dL
  TP: 5.4 g/dL
  gamma-GTP: 1 IU/L
[2]
  TERMINAL_BW: 194.9 g
  APTT: 16.3 s
  Bas: 0%
  Eos: 0.4%
  Fbg: 298.6 mg/dL
  Hb: 13.1 g/dL
  Ht: 40.8%
  Lym: 76.2%
  MCH: 21.7 pg
  MCHC: 32.1%
  MCV: 67.5 fL
  Mono: 2.4%
  Neu: 20.4%
  PT: 15.3 s
  Plat: 116.6 x10_4/uL
  RBC: 604 x10_4/ul
  Ret: 9%
  WBC: 60.3 x10_2/uL
  KIDNEY_L: 0.9 g
  KIDNEY_R: 0.9 g
  KIDNEY_TOTAL: 1.8 g
  LIVER: 8.5 g
  A/G: 0.9
  ALP: 1502.2 IU/L
  ALT: 36.4 IU/L
  AST: 68.8 IU/L
  BUN: 9.2 mg/dL
  CRE: 0.2 mg/dL
  Ca: 10.9 mg/dL
  Cl: 105.2 meq/L
  DBIL: 0.012 mg/dL
  GLC: 183.6 mg/dL
  IP: 9.9 mg/dL
  K: 4.2 meq/L
  LDH: 56.2 IU/L
  Na: 141.6 meq/L
  PL: 147.6 mg/dL
  RALB: 2.5 g/dL
  TBIL: 0.058 mg/dL
  TC: 81.4 mg/dL
  TG: 52.6 mg/dL
  TP: 5.3 g/dL
  gamma-GTP: 0.8 IU/L
[3]
  TERMINAL_BW: 191 g
  APTT: 16.5 s
  Bas: 0%
  Eos: 0.8%
  Fbg: 260.4 mg/dL
  Hb: 12.9 g/dL
  Ht: 39.9%
  Lym: 73.4%
  MCH: 20.5 pg
  MCHC: 32.4%
  MCV: 63.5 fL
  Mono: 2.6%
  Neu: 22.4%
  PT: 15.2 s
  Plat: 110.7 x10_4/uL
  RBC: 631.2 x10_4/ul
  Ret: 8.2%
  WBC: 82.7 x10_2/uL
  KIDNEY_L: 0.9 g
  KIDNEY_R: 0.9 g
  KIDNEY_TOTAL: 1.8 g
  LIVER: 7.9 g
  A/G: 0.9
  ALP: 1265.6 IU/L
  ALT: 38 IU/L
  AST: 75 IU/L
  BUN: 9.4 mg/dL
  CRE: 0.1 mg/dL
  Ca: 10.6 mg/dL
  Cl: 105.4 meq/L
  DBIL: 0.012 mg/dL
  GLC: 176.2 mg/dL
  IP: 10.1 mg/dL
  K: 4.2 meq/L
  LDH: 55.4 IU/L
  Na: 142 meq/L
  PL: 129.4 mg/dL
  RALB: 2.5 g/dL
  TBIL: 0.068 mg/dL
  TC: 76.8 mg/dL
  TG: 21 mg/dL
  TP: 5.4 g/dL
  gamma-GTP: 1 IU/L
[4]
  TERMINAL_BW: 204.1 g
  APTT: 15.6 s
  Bas: 0.2%
  Eos: 0.8%
  Fbg: 275.8 mg/dL
  Hb: 13.1 g/dL
  Ht: 40.4%
  Lym: 80.2%
  MCH: 21.6 pg
  MCHC: 32.6%
  MCV: 66.3 fL
  Mono: 2.6%
  Neu: 15.8%
  PT: 16 s
  Plat: 114.8 x10_4/uL
  RBC: 609.2 x10_4/ul
  Ret: 7.1%
  WBC: 63.9 x10_2/uL
  KIDNEY_L: 0.9 g
  KIDNEY_R: 0.9 g
  KIDNEY_TOTAL: 1.8 g
  LIVER: 9.3 g
  A/G: 0.9
  ALP: 1738.8 IU/L
  ALT: 43.4 IU/L
  AST: 71 IU/L
  BUN: 14.8 mg/dL
  CRE: 0.1 mg/dL
  Ca: 11.2 mg/dL
  Cl: 106.6 meq/L
  DBIL: 0.014 mg/dL
  GLC: 176.8 mg/dL
  IP: 7.6 mg/dL
  K: 4.5 meq/L
  LDH: 64.4 IU/L
  Na: 141.4 meq/L
  PL: 147.8 mg/dL
  RALB: 2.6 g/dL
  TBIL: 0.056 mg/dL
  TC: 75.2 mg/dL
  TG: 75.4 mg/dL
  TP: 5.7 g/dL
  gamma-GTP: 0.8 IU/L
10 mg/kg, 3 h, dose level Low
  TERMINAL_BW: 192.7 g
  APTT: 15.4 s
  Bas: 0.4%
  Eos: 0.6%
  Fbg: 276.8 mg/dL
  Hb: 12.7 g/dL
  Ht: 39.3%
  Lym: 80.6%
  MCH: 21.7 pg
  MCHC: 32.3%
  MCV: 67 fL
  Mono: 2.6%
  Neu: 15.2%
  PT: 15.1 s
  Plat: 113 x10_4/uL
  RBC: 587.8 x10_4/ul
  Ret: 9.1%
  WBC: 89.2 x10_2/uL
  KIDNEY_L: 0.8 g
  KIDNEY_R: 0.9 g
  KIDNEY_TOTAL: 1.7 g
  LIVER: 9 g
  A/G: 0.8
  ALP: 1362.6 IU/L
  ALT: 43.4 IU/L
  AST: 75.6 IU/L
  BUN: 11.2 mg/dL
  CRE: 0.2 mg/dL
  Ca: 11.1 mg/dL
  Cl: 105.2 meq/L
  DBIL: 0.016 mg/dL
  GLC: 176.6 mg/dL
  IP: 9.4 mg/dL
  K: 4.4 meq/L
  LDH: 80.4 IU/L
  Na: 141.6 meq/L
  PL: 137.2 mg/dL
  RALB: 2.4 g/dL
  TBIL: 0.064 mg/dL
  TC: 74.6 mg/dL
  TG: 46.2 mg/dL
  TP: 5.3 g/dL
  gamma-GTP: 1 IU/L
10 mg/kg, 6 h, dose level Low
  TERMINAL_BW: 193.5 g
  APTT: 15.7 s
  Bas: 0%
  Eos: 0.8%
  Fbg: 285.2 mg/dL
  Hb: 12.8 g/dL
  Ht: 40.3%
  Lym: 75.8%
  MCH: 21.3 pg
  MCHC: 31.8%
  MCV: 67.1 fL
  Mono: 2.6%
  Neu: 20.2%
  PT: 15.2 s
  Plat: 114.7 x10_4/uL
  RBC: 601.2 x10_4/ul
  Ret: 9.2%
  WBC: 77.4 x10_2/uL
  KIDNEY_L: 0.9 g
  KIDNEY_R: 0.9 g
  KIDNEY_TOTAL: 1.7 g
  LIVER: 8.1 g
  A/G: 0.9
  ALP: 1554.6 IU/L
  ALT: 46.8 IU/L
  AST: 83.2 IU/L
  BUN: 9 mg/dL
  CRE: 0.2 mg/dL
  Ca: 10.9 mg/dL
  Cl: 106.2 meq/L
  DBIL: 0.006 mg/dL
  GLC: 175.2 mg/dL
  IP: 10.1 mg/dL
  K: 4.3 meq/L
  LDH: 80.2 IU/L
  Na: 142.8 meq/L
  PL: 139.4 mg/dL
  RALB: 2.5 g/dL
  TBIL: 0.062 mg/dL
  TC: 78.8 mg/dL
  TG: 32.4 mg/dL
  TP: 5.3 g/dL
  gamma-GTP: 0.8 IU/L
10 mg/kg, 9 h, dose level Low
  TERMINAL_BW: 190.5 g
  APTT: 16.2 s
  Bas: 0%
  Eos: 0.4%
  Fbg: 288.8 mg/dL
  Hb: 12.8 g/dL
  Ht: 39.6%
  Lym: 71.2%
  MCH: 21.3 pg
  MCHC: 32.3%
  MCV: 65.7 fL
  Mono: 3%
  Neu: 24%
  PT: 15.2 s
  Plat: 118.3 x10_4/uL
  RBC: 601.8 x10_4/ul
  Ret: 8.2%
  WBC: 63.8 x10_2/uL
  KIDNEY_L: 0.9 g
  KIDNEY_R: 0.8 g
  KIDNEY_TOTAL: 1.7 g
  LIVER: 7.9 g
  A/G: 0.8
  ALP: 1271.4 IU/L
  ALT: 37.4 IU/L
  AST: 70.2 IU/L
  BUN: 9.2 mg/dL
  CRE: 0.2 mg/dL
  Ca: 10.7 mg/dL
  Cl: 106.8 meq/L
  DBIL: 0.012 mg/dL
  GLC: 184.6 mg/dL
  IP: 10.2 mg/dL
  K: 4.1 meq/L
  LDH: 78.8 IU/L
  Na: 142.4 meq/L
  PL: 139.4 mg/dL
  RALB: 2.5 g/dL
  TBIL: 0.062 mg/dL
  TC: 81.4 mg/dL
  TG: 29.4 mg/dL
  TP: 5.5 g/dL
  gamma-GTP: 1 IU/L
10 mg/kg, 24 h, dose level Low
  TERMINAL_BW: 210.3 g
  APTT: 15 s
  Bas: 0%
  Eos: 1%
  Fbg: 276.8 mg/dL
  Hb: 12.7 g/dL
  Ht: 39.6%
  Lym: 73.4%
  MCH: 21.9 pg
  MCHC: 32%
  MCV: 68.5 fL
  Mono: 2.8%
  Neu: 22.6%
  PT: 16 s
  Plat: 121.3 x10_4/uL
  RBC: 578.6 x10_4/ul
  Ret: 8.8%
  WBC: 79 x10_2/uL
  KIDNEY_L: 0.9 g
  KIDNEY_R: 0.9 g
  KIDNEY_TOTAL: 1.8 g
  LIVER: 10.1 g
  A/G: 0.9
  ALP: 1714.2 IU/L
  ALT: 45.2 IU/L
  AST: 71.4 IU/L
  BUN: 14.2 mg/dL
  CRE: 0.2 mg/dL
  Ca: 11.4 mg/dL
  Cl: 106 meq/L
  DBIL: 0.02 mg/dL
  GLC: 177.6 mg/dL
  IP: 8.2 mg/dL
  K: 4.3 meq/L
  LDH: 104.2 IU/L
  Na: 142.8 meq/L
  PL: 147.4 mg/dL
  RALB: 2.6 g/dL
  TBIL: 0.058 mg/dL
  TC: 77.2 mg/dL
  TG: 69.4 mg/dL
  TP: 5.6 g/dL
  gamma-GTP: 1 IU/L
